Experimental data from patent US20230122249A1, “1H-PYRAZOLO[4,3-d]PYRIMIDINE COMPOUNDS AS TOLL-LIKE RECEPTOR 7 (TLR7) AGONISTS” (BRISTOL-MYERS SQUIBB COMPANY, priority 2020, published 2023).

Legend:
human TLR7 = target: T1, human TLR7 (Homo sapiens, UniProt Q9NYK1); experiment: Human TLR7 agonist activity (hTLR7 reporter) assay in HEK-Blue TLR7 cells, SEAP readout; format: cell-based; settings: 18 h treatment, average where assay repeated
T1 construct: host or cells: HEK-Blue TLR7 cells (engineered human embryonic kidney cells)
T1 sequence (Q9NYK1 27-1049): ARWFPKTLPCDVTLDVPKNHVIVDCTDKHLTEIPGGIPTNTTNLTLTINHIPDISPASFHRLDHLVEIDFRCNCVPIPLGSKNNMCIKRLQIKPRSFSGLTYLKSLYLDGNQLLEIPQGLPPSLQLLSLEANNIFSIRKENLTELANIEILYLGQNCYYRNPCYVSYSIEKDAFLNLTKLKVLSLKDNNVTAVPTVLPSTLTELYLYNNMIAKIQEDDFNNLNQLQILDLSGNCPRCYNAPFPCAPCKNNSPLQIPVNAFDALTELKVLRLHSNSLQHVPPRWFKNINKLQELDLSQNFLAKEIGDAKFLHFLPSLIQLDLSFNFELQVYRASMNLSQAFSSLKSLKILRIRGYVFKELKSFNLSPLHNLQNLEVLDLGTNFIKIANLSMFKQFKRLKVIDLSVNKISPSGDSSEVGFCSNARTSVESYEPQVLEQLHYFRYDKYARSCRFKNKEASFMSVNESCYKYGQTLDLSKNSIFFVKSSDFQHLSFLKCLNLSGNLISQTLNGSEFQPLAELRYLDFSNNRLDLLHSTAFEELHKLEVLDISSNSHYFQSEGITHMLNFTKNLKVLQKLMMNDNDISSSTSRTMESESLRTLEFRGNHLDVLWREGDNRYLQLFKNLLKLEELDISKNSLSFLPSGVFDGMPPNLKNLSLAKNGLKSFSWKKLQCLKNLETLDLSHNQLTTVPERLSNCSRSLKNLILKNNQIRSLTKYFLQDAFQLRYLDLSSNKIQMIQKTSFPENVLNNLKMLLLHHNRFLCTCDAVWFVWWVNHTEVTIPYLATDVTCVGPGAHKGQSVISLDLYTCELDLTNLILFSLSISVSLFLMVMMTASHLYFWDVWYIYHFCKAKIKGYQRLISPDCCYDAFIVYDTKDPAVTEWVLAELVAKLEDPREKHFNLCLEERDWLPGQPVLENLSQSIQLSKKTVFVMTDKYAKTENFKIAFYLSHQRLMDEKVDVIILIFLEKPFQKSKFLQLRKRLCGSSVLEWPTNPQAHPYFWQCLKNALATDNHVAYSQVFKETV
Method: This procedure describes a method for assaying human TLR7 (hTLR7) agonist activity of the compounds disclosed in this specification.
HEK-Blue™ TLR7 cells were added to each well of a 384-well tissue-culture plate (15,000 cells per well) and incubated 16-18 h at 37° C., 5% CO2. Compounds (100 nl) were dispensed into wells containing the HEK-Blue™ TLR cells and the treated cells were incubated at 37° C., 5% CO2. After 18 h treatment ten microliters of freshly-prepared Quanti-Blue™ reagent (Invivogen) was added to each well, incubated for 30 min (37° C., 5% CO2) and SEAP levels measured using an Envision plate reader (OD=620 nm). The half maximal effective concentration values (EC50; compound concentration which induced a response halfway between the assay baseline and maximum) were calculated.

[1] = tested on: CD69 in human whole blood; experiment: Induction of CD69 in human whole blood (hWB); format: cell-based; settings: heparinized human whole blood, 17 h, CD69 surface staining; 100% set to 1 uM resiquimod; average where assay repeated
Method: The induction of Type I interferon (IFN) MX-1 genes and the B-cell activation marker CD69 are downstream events that occur upon activation of the TLR7 pathway. The following is a human whole blood assay that measures their induction in response to a TLR7 agonist.
Heparinized human whole blood was harvested from human subjects and treated with test TLR7 agonist compounds at 1 mM. The blood was diluted with RPMI 1640 media and Echo was used to predot 10 nL per well giving a final concentration of 1 uM (10 nL in 10 uL of blood). After mixing on a shaker for 30 sec, the plates were covered and placed in a 37° C. chamber for o/n=17 hrs. Fixing/lysis buffer was prepared (5×->1×in H2O, warm at 37° C.; Cat# BD 558049) and kept the perm buffer (on ice) for later use.
For surface markers staining (CD69): prepared surface Abs: 0.045 ul hCD14-FITC (ThermoFisher Cat # MHCD1401)+0.6 ul hCD19-ef450 (ThermoFisher Cat #48-0198-42)+1.5 ul hCD69-PE (cat# BD555531)+0.855 ul FACS buffer. Added 3 ul/well, spin1000 rpm for 1 min and mixed on shaker for 30 sec, put on ice for 30 mins. Stop stimulation after 30 minutes with 70 uL of prewarmed 1×fix/lysis buffer and use Feliex mate to resuspend (15 times, change tips for each plate) and incubate at 37° C. for 10 minutes.
Centrifuge at 2000 rpm for 5 minutes aspirate with HCS plate washer, mix on shaker for 30 sec and then wash with 70 uL in dPBS and pelleted 2 xs (2000 rpm for 5 min) and 50 ul wash in FACS buffer pelleted 1 xs(2000 rpm for 5 min). Mix on shaker for 30 sec. For Intracellular markers staining (MX-1): Add 50 ul of BD Perm buffer III and mix on shaker for 30 sec. Incubate on ice for 30 minutes (in the dark). Wash with 50 uL of FACS buffer 2×(spin @2300 rpm×5 min after perm) followed by mixing on shaker for 30 sec. Resuspended in 20 ul of FACS buffer containing MX1 antibody ( )(4812)-Alexa 647: Novus Biologicals #NBP2-43704AF647) 20 ul FACS bf+0.8 ul hlgG+0.04 ul MX-1. Spin 1000 rpm for 1 min, mix on shaker for 30 se and the samples were incubated at RT in the dark for 45 minutes followed by washing 2×FACS buffer (spin @2300 rpm×5 min after perm). Resuspend 20 ul (35 uL total per well) of FACS buffer and cover with foil and place in 4° C. to read the following day. Plates were read on iQuePlus. The results were loaded into toolset and […] curves are generated in curve master. The y-axis 100% is set to 1 uM of resiquimod.

COc1cc(CN2CC3(CCOCC3)C2)ccc1Cn1ncc2nc(N)nc(NCC3CC4(C3)CC4F)c21 (stereo not shown) [Compound 117]
EC50 (human TLR7): 141 nM
EC50 [1]: 122 nM

COc1cc(CN2C[C@H]3COC[C@H]3C2)ccc1Cn1ncc2nc(N)nc(NCC3CC4(C3)CC4F)c21 (stereo partly shown) [Compound 119]
EC50 (human TLR7): 144 nM
EC50 [1]: 258 nM

COc1cc(CN2CC3(C2)CN(C(C)=O)C3)ccc1Cn1ncc2nc(N)nc(NCC3CC4(C3)CC4F)c21 (stereo not shown) [Compound 121]
EC50 (human TLR7): 358 nM
EC50 [1]: 160 nM

COc1cc(CN2CC3(CCO3)C2)ccc1Cn1ncc2nc(N)nc(NCC3CC4(C3)CC4F)c21 (stereo not shown) [Compound 127]
EC50 (human TLR7): 214 nM
EC50 [1]: 413 nM

COc1cc(CN2CC3(CN(C)C3)C2)ccc1Cn1ncc2nc(N)nc(NCC3CC4(CC4)C3)c21 [Compound 131]
EC50 (human TLR7): 234 nM
EC50 [1]: 4.6 nM

COc1cc(CN2CC3(C2)CS(=O)(=O)C3)ccc1Cn1ncc2nc(N)nc(NCC3CC4(C3)CC4(F)F)c21 (stereo not shown) [Compound 139]
EC50 (human TLR7): 382 nM
EC50 [1]: 464 nM

COc1cc(CN2C[C@@H]3C[C@H]2CN3)ccc1Cn1ncc2nc(N)nc(NCC3CC4(C3)CC4(F)F)c21 (stereo partly shown) [Compound 141]
EC50 (human TLR7): 266 nM
EC50 [1]: 244 nM

COc1cc(CN2CC3(C2)CS(=O)(=O)C3)ccc1Cn1ncc2nc(N)nc(NCC3CC4(CC4)C3)c21 (stereo not shown) [Compound 145]
EC50 (human TLR7): 179 nM
EC50 [1]: 326 nM

COc1cc(CN2CC3(CC(O)C3)C2)ccc1Cn1ncc2nc(N)nc(NCC3CC4(CC4)C3)c21 (stereo not shown) [Compound 146]
EC50 (human TLR7): 42.5 nM
EC50 [1]: 8.9 nM

COc1cc(CN2CC3(CC(OC)C3)C2)ccc1Cn1ncc2nc(N)nc(NCC3CC4(CC4)C3)c21 (stereo not shown) [Compound 147]
EC50 (human TLR7): 40.5 nM
EC50 [1]: 37 nM

COc1cc(CN2C[C@H]3CN(C)C[C@H]3C2)ccc1Cn1ncc2nc(N)nc(NCC3CC4(CC4)C3)c21 [Compound 148]
EC50 (human TLR7): 74.2 nM
EC50 [1]: 9.6 nM

COc1cc(C(=O)N2CC3(CN(C)C3)C2)ccc1Cn1ncc2nc(N)nc(NCC3CC4(C3)CC4(F)F)c21 (stereo not shown) [Compound 149]
EC50 (human TLR7): 42 nM
EC50 [1]: 31 nM

COc1cc(C(=O)N2C[C@H]3CN(C)C[C@H]3C2)ccc1Cn1ncc2nc(N)nc(NCC3CC4(C3)CC4(F)F)c21 (stereo partly shown) [Compound 150]
EC50 (human TLR7): 9.4 nM
EC50 [1]: 17.2 nM

COc1cc(C(=O)N2C[C@@H]3C[C@H]2CN3C)ccc1Cn1ncc2nc(N)nc(NCC3CC4(C3)CC4(F)F)c21 (stereo partly shown) [Compound 151]
EC50 (human TLR7): 45 nM
EC50 [1]: 32.4 nM

COc1cc(CN2CC3(CNC3)C2)ccc1Cn1ncc2nc(N)nc(NCC3CC(C4CC4)C3)c21 (stereo not shown) [Compound 152]
EC50 (human TLR7): 167 nM
EC50 [1]: 152 nM

COc1cc(CNC2CCC2)ccc1Cn1ncc2nc(N)nc(NCC3CC4(CCC4)C3)c21 [Compound 153]
EC50 (human TLR7): 30.5 nM
EC50 [1]: 189 nM

COc1cc(CNC2CCOCC2)ccc1Cn1ncc2nc(N)nc(NCC3CC4(CCC4)C3)c21 [Compound 154]
EC50 (human TLR7): 26.9 nM
EC50 [1]: 130 nM

COc1cc(CN2CC3(CNC3)C2)ccc1Cn1ncc2nc(N)nc(NCC3CC4(CCC4)C3)c21 [Compound 155]
EC50 (human TLR7): 583 nM
EC50 [1]: 552 nM

COc1cc(CN2C[C@@H]3C[C@H]2CN3)ccc1Cn1ncc2nc(N)nc(NCC3CC4(CCC4)C3)c21 [Compound 156]
EC50 (human TLR7): 76.9 nM
EC50 [1]: 374 nM

COc1cc(CN2C[C@H]3CNC[C@H]3C2)ccc1Cn1ncc2nc(N)nc(NCC3CC4(CCC4)C3)c21 [Compound 157]
EC50 (human TLR7): 65.7 nM
EC50 [1]: 364 nM

COc1cc(CN2CC3(CC(O)C3)C2)ccc1Cn1ncc2nc(N)nc(NCC3CC4(CCC4)C3)c21 (stereo not shown) [Compound 158]
EC50 (human TLR7): 38 nM
EC50 [1]: 39.1 nM

COc1cc(C(=O)N2C[C@H]3CNC[C@H]3C2)ccc1Cn1ncc2nc(N)nc(NCC3CC4(C3)CC4(F)F)c21 (stereo partly shown) [Compound 159]
EC50 (human TLR7): 909 nM
EC50 [1]: 1000 nM

COc1cc(C(=O)NCCN(C)C)ccc1Cn1ncc2nc(N)nc(NCC3CC4(C3)CC4(F)F)c21 (stereo not shown) [Compound 163]
EC50 (human TLR7): 705 nM
EC50 [1]: 268 nM

COc1cc(CO)ccc1Cn1ncc2nc(N)nc(NCC3CC4(CC4)C3)c21 [Compound 166, (4-((5-amino-7-((spiro[2.3]hexan-5-ylmethyl)amino)-1H-pyrazolo[4,3-d]pyrimidin-1-yl)methyl)-3-methoxyphenyl)methanol]
EC50 (human TLR7): 261 nM
EC50 [1]: 117 nM

COc1cc(CN[C@H]2C[C@H](O)C2)ccc1Cn1ncc2nc(N)nc(NCC3CC4(CC4)C3)c21 [Compound 167]
EC50 (human TLR7): 23 nM
EC50 [1]: 1.7 nM

COc1cc(CN2CC(CCO)C2)ccc1Cn1ncc2nc(N)nc(NCC3CC4(CC4)C3)c21 [Compound 168]
EC50 (human TLR7): 30.4 nM
EC50 [1]: 3.8 nM

COc1cc(CN2C[C@H]3CNC[C@H]3C2)ccc1Cn1ncc2nc(N)nc(NCC3CC4(CC4)C3)c21 [Compound 169]
EC50 (human TLR7): 28 nM
EC50 [1]: 4.5 nM

COc1cc(CNCCO)ccc1Cn1ncc2nc(N)nc(NCC3CC4(CC4)C3)c21 [Compound 170]
EC50 (human TLR7): 18.5 nM
EC50 [1]: 2.1 nM

COc1cc(C(=O)N2CCNCC2)ccc1Cn1ncc2nc(N)nc(NCC3CC4(CC4)C3)c21 [Compound 171]
EC50 (human TLR7): 17 nM
EC50 [1]: 2.8 nM

COc1cc(C(=O)N2CC3(CNC3)C2)ccc1Cn1ncc2nc(N)nc(NCC3CC4(CC4)C3)c21 [Compound 172]
EC50 (human TLR7): 785 nM
EC50 [1]: 300 nM

COc1cc(C(=O)N2CC3(CN(C)C3)C2)ccc1Cn1ncc2nc(N)nc(NCC3CC4(CC4)C3)c21 [Compound 173]
EC50 (human TLR7): 20.9 nM
EC50 [1]: 5.4 nM

COc1cc(C(=O)N2CC3(COC3)C2)ccc1Cn1ncc2nc(N)nc(NCC3CC4(CC4)C3)c21 [Compound 174]
EC50 (human TLR7): 93.1 nM
EC50 [1]: 934 nM

COc1cc(C(=O)N2C[C@H]3CNC[C@H]3C2)ccc1Cn1ncc2nc(N)nc(NCC3CC4(CC4)C3)c21 [Compound 175]
EC50 (human TLR7): 96.5 nM
EC50 [1]: 48.8 nM

COc1cc(C(=O)N2C[C@H]3CN(C)C[C@H]3C2)ccc1Cn1ncc2nc(N)nc(NCC3CC4(CC4)C3)c21 [Compound 176]
EC50 (human TLR7): 10.8 nM
EC50 [1]: 3.6 nM

COc1cc(C(=O)N[C@H]2C[C@H](O)C2)ccc1Cn1ncc2nc(N)nc(NCC3CC4(CC4)C3)c21 [Compound 177]
EC50 (human TLR7): 579 nM
EC50 [1]: 359 nM
